Results as given in patent publication US20040092475A1, “Organic compounds” (priority 2002, published 2004).
Counter-ions that a name gives are not always drawn.

Columns and labels:
[1] = test system: receptor-mediated calcium entry (RMCE); conditions: Merritt et al, Biochem. J. (1990) 271: 515-522; cited from earlier work
human TRPC6 ion channel = target: T1, human TRPC6 ion channel (Homo sapiens, UniProt Q9Y210); test: FLIPR membrane potential assay, carbachol-stimulated TRPC6-expressing cells (TRPC6 clone 14); format: cell-based; conditions: for Mean fluorescence response calculated as (Max − Min)/Min: 10 min pre-treatment, n=10 wells, control 1.219
T1 construct: expressed in transfected cells; host or cells: TRPC6 clone 14 cells
T1 sequence (Q9Y210 1-931): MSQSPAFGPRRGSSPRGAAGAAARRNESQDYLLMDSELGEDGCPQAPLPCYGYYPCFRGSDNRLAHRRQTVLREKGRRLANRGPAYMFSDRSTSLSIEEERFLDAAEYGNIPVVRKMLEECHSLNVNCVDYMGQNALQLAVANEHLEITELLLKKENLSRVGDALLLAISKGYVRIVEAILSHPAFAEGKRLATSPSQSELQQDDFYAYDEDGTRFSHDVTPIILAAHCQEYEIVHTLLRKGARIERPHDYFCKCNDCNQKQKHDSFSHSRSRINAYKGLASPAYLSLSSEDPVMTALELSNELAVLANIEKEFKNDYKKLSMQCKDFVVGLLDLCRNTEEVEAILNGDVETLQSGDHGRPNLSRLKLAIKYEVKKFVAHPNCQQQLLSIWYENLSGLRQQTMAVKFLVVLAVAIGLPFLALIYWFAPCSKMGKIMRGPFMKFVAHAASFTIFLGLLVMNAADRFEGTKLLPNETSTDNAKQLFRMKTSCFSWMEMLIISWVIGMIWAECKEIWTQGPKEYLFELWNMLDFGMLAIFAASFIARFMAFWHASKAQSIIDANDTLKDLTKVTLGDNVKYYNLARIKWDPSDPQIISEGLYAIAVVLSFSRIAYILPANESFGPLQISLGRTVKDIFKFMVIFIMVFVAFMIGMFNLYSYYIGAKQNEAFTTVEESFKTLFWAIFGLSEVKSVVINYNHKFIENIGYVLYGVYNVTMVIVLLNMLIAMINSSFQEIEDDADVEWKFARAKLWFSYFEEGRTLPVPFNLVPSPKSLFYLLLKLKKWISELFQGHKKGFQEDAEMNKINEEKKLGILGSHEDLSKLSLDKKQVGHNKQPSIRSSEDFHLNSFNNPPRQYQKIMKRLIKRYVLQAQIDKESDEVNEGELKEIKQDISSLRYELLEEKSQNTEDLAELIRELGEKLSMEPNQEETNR
Method: In a suitable test for any inhibition of the TRPC6 channel, cells that express an endogenous G protein-coupled calcium mobilising receptor e.g. muscarinic acetylcholine receptor that can activate TRPC6 channels are used and a receptor agonist e.g. muscarinic acetylcholine receptor agonist is added to stimulate the TRPC6 channels. The cells are treated with the candidate substance prior to addition of the receptor agonist. That should produce an increase in fluorescence, but the magnitude of the increase will be reduced if the candidate substance inhibits the TRPC6 channels. Any change in fluorescence can be measured using suitable equipment, for example a fluorescence imaging plate reader.
An assay for screening candidate or test compounds is performed using cells stably-transfected with TRPC6 and expressing a functional TRPC6 channel e.g. the mammalian cell line HEK 293 which expresses an endogenous muscarinic acetylcholine receptor which can activate TRPC6 channels. […] The TRPC6-expressing cells are seeded in 96-well black-walled flat-bottomed microplates in a plating volume of 100 μl and grown to confluence for the assay. To prepare the cells for the assay, the cell culture medium is removed and 100 μl of loading buffer is added to each well. The loading buffer consists of FLIPR® membrane potential dye diluted to the required assay concentration in a buffer composed of 140 mM-NaCl, 0.15 mM CaCl2, 3.3 mM KH2PO4, 1.2 mM MgCl2, 10 mM D-glucose and 20 m M HEPES, at pH7.4 and containing 0.03 mM BAPTA-AM. The plates are incubated at 37° C. for 20 minutes prior to commencing the assay. For the detection of inhibitors of TRPC6, test agents are added to each well either before or after stimulation with the muscarinic acetylcholine receptor agonist carbachol, which activates the TRPC6 channel. The expected effect of an inhibitor would be to reduce the carbachol-stimulated increase in fluorescence. Activators of TRPC6 may be detected by substituting carbachol for a test agent, where activators will stimulate an increase in fluorescence.
TRPC6 clone 14 cells pre-treated with 1-[b-[3-(4-methoxyphenyl)propoxy]-4-methoxyphenethyl]-1H-imidazole.HCl for 10 minutes are stimulated with carbachol (10 μM) in accordance with the assay described in Example 2. The fluorescence is measured prior to carbachol addition (minimum response, i.e. Min.) and when the carbachol-stimulated increase in fluorescence has reached a maximum (maximum response, i.e. Max.). It can be seen in table 1 below that the reduced fluorescence responses are observed in compound treated-cells compared to the control response in the absence of compound.
The data is calculated as a (Max−Min)/Min response. Each concentration of 1-[b-[3-(4-methoxyphenyl)propoxy]-4-methoxyphenethyl]-1H-imidazole.HCl is the mean±SEM (standard error of the mean) of n=10 wells.

murine TRPC6 ion channel = target: T2, murine TRPC6 ion channel (Mus musculus, UniProt Q61143); conditions: Inoue et al, Circ. Res. (2001) 88: 325-332; cited from earlier work
T2 sequence (Q61143 1-930): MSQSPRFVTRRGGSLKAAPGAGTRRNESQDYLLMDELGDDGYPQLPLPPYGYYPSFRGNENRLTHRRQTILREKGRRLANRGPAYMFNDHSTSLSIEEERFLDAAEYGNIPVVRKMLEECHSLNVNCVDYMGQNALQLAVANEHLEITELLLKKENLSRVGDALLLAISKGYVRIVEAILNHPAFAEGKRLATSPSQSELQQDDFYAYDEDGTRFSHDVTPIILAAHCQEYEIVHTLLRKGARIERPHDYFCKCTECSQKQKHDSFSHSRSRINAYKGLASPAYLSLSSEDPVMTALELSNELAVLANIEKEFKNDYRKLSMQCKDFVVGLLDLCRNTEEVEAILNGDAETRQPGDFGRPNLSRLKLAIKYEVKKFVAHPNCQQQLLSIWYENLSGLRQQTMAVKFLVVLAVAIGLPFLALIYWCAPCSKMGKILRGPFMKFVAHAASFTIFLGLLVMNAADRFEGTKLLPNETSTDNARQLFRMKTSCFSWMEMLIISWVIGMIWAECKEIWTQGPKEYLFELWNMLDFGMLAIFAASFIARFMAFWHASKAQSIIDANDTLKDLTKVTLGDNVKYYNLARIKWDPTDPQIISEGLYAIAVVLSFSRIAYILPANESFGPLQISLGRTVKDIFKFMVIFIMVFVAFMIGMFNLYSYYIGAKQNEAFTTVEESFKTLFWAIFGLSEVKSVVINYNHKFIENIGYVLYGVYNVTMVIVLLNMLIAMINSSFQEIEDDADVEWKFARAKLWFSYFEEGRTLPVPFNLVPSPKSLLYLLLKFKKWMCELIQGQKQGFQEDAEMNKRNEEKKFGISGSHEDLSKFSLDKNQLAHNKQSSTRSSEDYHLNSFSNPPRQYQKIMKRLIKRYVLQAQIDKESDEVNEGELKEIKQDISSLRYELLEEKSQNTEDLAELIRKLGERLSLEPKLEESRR

## COc1ccc(CCCOC(Cn2ccnc2)c2ccc(OC)cc2)cc1 (stereo not shown) [1-[b-[3-(4-methoxyphenyl)propoxy]-4-methoxyphenethyl]-1H-imidazole.HCl]
[1]
  receptor-mediated calcium entry (RMCE): inhibit
Human TRPC6 ion channel; compound concentration 0.1 μM, carbachol 10 μM
  Mean fluorescence response calculated as (Max − Min)/Min: 1.172
Human TRPC6 ion channel; compound concentration 1.0 μM, carbachol 10 μM
  Mean fluorescence response calculated as (Max − Min)/Min: 0.977
Human TRPC6 ion channel; compound concentration 03 μM (so in the source), carbachol 10 μM
  Mean fluorescence response calculated as (Max − Min)/Min: 1.128
Human TRPC6 ion channel; compound concentration 3.0 μM, carbachol 10 μM
  Mean fluorescence response calculated as (Max − Min)/Min: 0.699
Human TRPC6 ion channel; compound concentration 10.0 μM, carbachol 10 μM
  Mean fluorescence response calculated as (Max − Min)/Min: 0.278
Human TRPC6 ion channel; compound concentration 30.0 μM, carbachol 10 μM
  Mean fluorescence response calculated as (Max − Min)/Min: 0.122
Human TRPC6 ion channel; mean±S.E.M. from n=4 experiments, carbachol 10 μM, read-out: calculated mean IC50 value
  IC50: 4.9 ± 0.8 µM
Human TRPC6 ion channel; result in words
  activity of the human TRPC6 ion channel: inhibits
Murine TRPC6 ion channel
  murine TRPC6 ion channel block: block
